Source: patent US8592428B2 (MSD K. K., priority 2008, dated 2013)
pEC50: −log10 of the molar value. In brackets after ≈: the same amount, converted by molar mass.

How the values were obtained:
[1] = target: T1, recombinant human liver GK (Homo sapiens, UniProt P35557); test: Glucokinase-activating effect (Thio-NADH coupled G6PDH assay); type: biochemical; settings: final glucose concentration 2.5 mM, 30° C.; for Emax: OD level of DMSO control = 100%
T1 construct: made in house; host or cells: E. coli
T1 sequence (P35557 1-466 isoform P35557-2): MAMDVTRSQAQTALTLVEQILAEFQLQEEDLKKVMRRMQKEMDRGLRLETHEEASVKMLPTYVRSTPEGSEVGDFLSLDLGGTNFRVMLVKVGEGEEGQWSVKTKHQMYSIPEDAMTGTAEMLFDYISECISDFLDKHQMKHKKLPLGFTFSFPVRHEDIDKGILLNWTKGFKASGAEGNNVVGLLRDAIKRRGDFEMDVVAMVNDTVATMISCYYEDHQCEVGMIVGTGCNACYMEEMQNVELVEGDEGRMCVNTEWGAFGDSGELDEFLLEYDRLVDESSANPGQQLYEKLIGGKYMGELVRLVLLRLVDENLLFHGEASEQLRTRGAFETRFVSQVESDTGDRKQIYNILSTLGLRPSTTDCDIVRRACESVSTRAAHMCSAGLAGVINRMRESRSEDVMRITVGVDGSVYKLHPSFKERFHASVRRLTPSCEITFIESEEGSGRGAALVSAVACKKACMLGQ
Text: The excellent glucokinase-activating effect of the compounds of formula (I) may be determined by a method described in literature (for example, Diabetes, Vol. 45, pp. 1671-1677, 1996), or in accordance with it.
The glucokinase activity may be determined not by directly measuring glucose-6-phosphate but by measuring the level of Thio-NADH, which is produced when a reporter enzyme, glucose-6-phosphate dehydrogenase produces phosphogluconolactone from glucose-6-phosphate, and based on the level, the degree of glucokinase activation by the compound tested may be determined.
In this assay, used was a recombinant human liver GK, which was expressed by E. coli as a FLAG fusion protein therein and was purified by […] M2 AFFINITY GEL (Sigma).
Using a flat-bottomed 96-well plate, the assay was carried out at 30° C. 69 μl of an assay buffer (25 mM Hepes Buffer/pH=7.2, 2 mM MgCl2, 1 mM ATP, 0.5 mM TNAD, 1 mM dithiothreitol) was put into the plate, and 1 μl of a DMSO solution of the compound or DMSO alone as a control was added thereto. Next, 20 μl of an enzyme mixture (FLAG-GK, 20 U/ml G6PDH) cooled in ice was added to it, and 10 μl of a substrate, 25 mM glucose was added to it, and the reaction was initiated (final glucose concentration=2.5 mM).
After the start of the reaction, the increase in the absorbance at 405 nm was measured for 12 minutes at intervals of 30 seconds, and the increase for the first 5 minutes was used for assessing the compound tested. FLAG-GK was added so that the absorbance increase after 5 minutes in the presence of 1% DMSO could be from 0.04 to 0.06.
The OD level of the DMSO control was set as 100%; and the OD level of the test compound at different concentrations was determined. From the OD level at each concentration, Emax (%) and EC50 (μM) were computed and used as the index of the GK-activating potency of the compound.

[2] = Solubility in water by solution precipitation method (HPLC); type: physicochemical; settings: water (2% DMSO), kinetic from dmso stock, from 10 mM DMSO solution, 60 minutes stirring at room temperature, compounds of the present invention
Protocol: For solubility in water, the solubility of a compound in water was determined by a solution precipitation method.
For an HPLC system, Agilent HPLC 1100 system was used. […] For a shaker, Microincubator M-36 (Taitec) was used. For a plate, a 96-deep well plate (Nunc. 260252) was used. For a well cap, Pre-Slit Well Cap for 96 Well PP (NALGENE. 276011) was used. For a filtration plate, MultiScreen Solubility (Millipore; MSSLBPC10) was used. For dispensation, an 8-channel electronic multipipette, Biohit Proline (Biohit), and a 96-well automatic pipetting device, Biomeck 2000 (Biomeck) were used. For a reagent used, a pure solvent for DMSO ultraviolet absorption spectrum (Dojindo 349-01025) and water (MiliQ water, manufactured by Millipore).
For a DMSO solution, a sample was prepared with DMSO to be precisely 10 mM.
Precise dispensation of 10 μL of a DMSO solution into each well of a 96-well plate was performed. Following addition of 490 μL of water to each of the wells and plate-sealing with 96-well Cap (Agilent No. 5042-1389), intense stirring processing of the plate was performed for 60 minutes at room temperature on a shaker. Subsequently, 200 μL of a treatment sample was added to a plate for centrifugal filtration, and centrifugal filtration of the sample was performed to obtain a filtrate. A sample solution was made by adding 200 μl, of a 50% aqueous acetonitrile solution to the provided filtrate.
Precise dispensation of 10 μL of a DMSO solution into each well of a 96-well plate was performed.
Detection was performed using a multi-wavelength detector (190-370 nm). For a column, the above-mentioned column was used at 40° C. A flow rate was set at 1.2 ml/min, and an amount of an injected sample at 20 μL. For a moving phase, a 0.1% aqueous phosphoric acid solution as a liquid A and acetonitrile as a liquid B were used to carry out analyses in accordance with a time schedule described below.
For the analyses, the data of UV 275 nm were adopted. […] Using the calibration curve, regression calculation of concentrations in water was carried out from Area of sample solutions (water).

| Emax [1] | pEC50 [1] | solubility at 60 min [2] | SMILES |
| --- | --- | --- | --- |
| – | 7.00 | > 170 µM | CC(=O)N1CCC[C@@H]1c1cc2[nH]c(-c3cnccn3)cc2cc1Oc1ccc(C(=O)N(C)CCO)nc1 [Example 28] |
| 942% | 6.80 | 129 µM (≈ 60.7 µg/mL) | CCNC(=O)c1ccc(Oc2cc3cc(-c4cnccn4)[nH]c3cc2[C@H]2CCCN2C(C)=O)cn1 [Example 26, 6-[(R)-1-acetylpyrrolidin-2-yl]-5-[6-(N-ethylcarbamoyl)pyridin-3-yloxy]-2-(pyrazin-2-yl)-1H-indole] |
| 957% | 6.92 | > 170 µM | CCN(CC)C(=O)c1ccc(Oc2cc3cc(-c4cnccn4)[nH]c3cc2[C@H]2CCCN2C(C)=O)cn1 [Example 27] |

More lines, now with the values behind:

| SMILES | Emax [1] | pEC50 [1] | solubility at 60 min [2] |
| --- | --- | --- | --- |
| CC(=O)N1CCC[C@@H]1c1cc2[nH]c(-c3ccn(C)n3)cc2cc1Oc1ccc(S(C)(=O)=O)nc1 [Example 4, 6-[(R)-1-acetylpyrrolidin-2-yl]-2-(1-methyl-1H-pyrazol-3-yl)-5-(6-methylsulfonylpyridin-3-yloxy)-1H-indole] | 943% | 6.74 | > 170 µM |
| CC(=O)N1CCC[C@@H]1c1cc2[nH]c(-c3cnc(C)cn3)cc2cc1Oc1ccc(OCCO)nc1 [Example 13, 6-[(R)-1-acetylpyrrolidin-2-yl]-5-[6-(2-hydroxyethoxy)pyridin-3-yloxy]-2-(5-methylpyrazin-2-yl)-1H-indole] | 995% | 6.64 | 93.7 µM (≈ 44.4 µg/mL) |
| COCc1ccc(Oc2cc3cc(-c4cnc(CO)cn4)[nH]c3cc2[C@H]2CCCN2C(C)=O)cn1 [Example 16, 6-[(R)-1-acetylpyrrolidin-2-yl]-2-(5-hydroxymethylpyrazin-2-yl)-5-(6-methoxymethylpyridin-3-yloxy)-1H-indole] | – | 6.77 | > 170 µM |
| COCc1ccc(Oc2cc3cc(-c4cnccn4)[nH]c3cc2[C@H]2CCCN2C(C)=O)cn1 [Example 17, 6-[(R)-1-acetylpyrrolidin-2-yl]-5-(6-methoxymethylpyridin-3-yloxy)-2-(pyrazin-2-yl)-1H-indole] | 988% | 7.10 | > 170 µM |
